Source: US20260053861A1, “CELL COMPOSITIONS AND METHODS OF USING THE SAME” (THE REGENTS OF THE UNIVERSITY OF CALIFORNIA, priority 2022, published 2026)

Columns and labels:
hPSC-SCs [1] = assay: Metabolite measurements by biochemical/colorimetric assays (sorbitol, fructose, lactate, glucose, pyruvate); type: cell-based, human
[2] = Blood glucose levels in STZ-treated mice; conditions: BP in chow
[3] = tested on: patients suffering from neuropathic pain; conditions: cited from earlier work
hPSC-SCs [4] = tested on: hPSC-SCs
NF-kB p65 = NF-kB p65 staining, nuclear localization in SCs exposed to high glucose; type: cell-based, human
hPSC-SCs [5] = assay: Untargeted primary metabolomics of glucose and BP treated SCs; type: cell-based, human
[6] = tested on: SOX10+ cells in 2D or 3D NC cultures; assay: Maintenance of SOX10 expression in cultured NC precursors with signaling modulators; type: cell-based, human; conditions: CHIR99021 exposure together with FGF2, 3D aggregates
Text: Initial hPSC-based NC differentiation protocols relied on the delamination of putative NC cells from neuroepithelial lineages combined with the prospective isolation of p75+ and/or HNK1+ NC precursors (Bajpai et al., 2010; Lee et al., 2007). While those protocols yield various NC-derived lineages, the levels of SOX10 expression are generally low. In contrast, more directed NC induction protocols based on timed exposure to activators of WNT signaling show robust induction of SOX10 in the majority of cells by day 11 of differentiation (Barber et al., 2019; […] et al., 2016; Menendez et al., 2011; Mica et al., 2013; Tchieu et al., 2017). Upon further culture, those hPSC-derived NC cells can be directed into SOX10+ melanocytes (Mica et al., 2013) but also give rise to SOX10-mesenchymal and neuronal precursors ([…] et al., 2016; Lee et al., 2007; Mica et al., 2013; Tchieu et al., 2017). Since SOX10 is a key marker in the SC lineage (Finzsch et al., 2010), we first screened for conditions that maintained its expression in cultured NC precursors. We determined the percentage of SOX10+ cells in 2D or 3D NC cultures in the presence of modulators of EGF, FGF, WNT, Notch, TGFβ, BMP and endothelin 3 signaling.

Molecule | cellular level of fructose increased by high glucose (hPSC-SCs [1]) | intracellular glucose and sucrose levels (hPSC-SCs [1]; SCs, high glucose) | sorbitol accumulation in SCs (hPSC-SCs [1]; high glucose) | blood glucose levels [2] | benefit in patients with neuropathic pain [3] | normalized (transformed) viability z-score, number of viable cells (hPSC-SCs [4]; 30 mM glucose, compounds at 1 μM, 72 hours, DAPI negative RFP positive cells) | highest non-toxic dose (hPSC-SCs [4]; human) [µM] | rescue of viability of high glucose treated SC cultures, dose response (hPSC-SCs [4]; various concentrations, high glucose) | NF-kB p65 localization to the nucleus in SCs exposed to high glucose (NF-kB p65) | cellular lactate level (hPSC-SCs [5]; SCs) | levels of TCA cycle metabolites succinate, fumarate, citrate, α-ketoglutarate and malate (hPSC-SCs [5]; SCs) | cellular pyruvate increased by high glucose (hPSC-SCs [5]; high glucose) | concentration of citrate reduced by high glucose (hPSC-SCs [5]; high glucose) | urea concentration and transporter SLC14A2 mRNA level (hPSC-SCs [5]; high glucose) | SOX10 expression in cultured NC precursors [6]
CC(NC(C)(C)C)C(=O)c1cccc(Cl)c1 (stereo not shown) [BP, Bupropion] | countered this effect | decrease in intracellular glucose and sucrose levels | reduced sorbitol accumulation in SCs in a dose-dependent manner | does not affect glucose levels | some benefit | top hit compound | 0.7 | dose-dependent effect on rescuing the viability | counteracted by BP treatment | reduced after BP treatment | increase in the detected levels | lowered by BP treatment | reversed by BP treatment | decreased in the presence of BP | 
Cc1c[nH]c(-c2cnc(NCCNc3ccc(C#N)cn3)nc2-c2ccc(Cl)cc2Cl)n1 [CHIR99021, reference compound] |  |  |  |  |  |  |  |  |  |  |  |  |  |  | maintenance of SOX10 expression in 3D aggregates
FGF2 |  |  |  |  |  |  |  |  |  |  |  |  |  |  | maintenance of SOX10 expression in 3D aggregates
